Results on 18 compounds are retold here after patent publication US8058243B2, “Method for treating a brain cancer with ifenprodil” (HSC Research and Development Limited Partnership, priority 2006, dated 2011).

The subject of the experiment is murine neural precursor cells (neurosphere cultures). The experiment is described as follows: HTS of LOPAC library against secondary neurosphere cultures, MTT proliferation assay at 3 μM, day 7 (z score, P value). Format: cell-based, mouse.
Where [1] appears, read: LOPAC primary screen, neurosphere MTT proliferation, 3 μM, day 7.
[2] abbreviates: yes/no: significantly inhibited neurosphere proliferation in primary screen.
The mark [3] stands for this setting: LOPAC library screen, 3 μM, MTT, secondary neurosphere cultures, day 7.
The mark [4] stands for this setting: LOPAC library screen at 3 μM, secondary neurosphere cultures, MTT.
The mark [5] stands for this setting: yes/no: significantly inhibited neurosphere proliferation in the primary screen.
The mark [6] stands for this setting: yes = significantly inhibited neurosphere proliferation (P<0.01) in the primary screen.

Structures can show the parent of a compound that is named as a salt. Where two headings read alike, the source gives them in different places.

As for `Cl.NC1CCN(c2cccc(Cl)n2)CC1` [SR 57227A], the “Z Score” value is given as −1.4. Under setting [1], this compound gave a Z score of −1.400. For the same compound, under setting [2], the Activity entry is “no”.

`CCc1ccccc1OC[C@@H](O)CN[C@H]1CCCc2ccccc21.O=C(O)C(=O)O` [SR 59230A oxalate]: the “Z Score” value under setting [3] was −1.222. Under setting [1], this compound returned a Z score of −1.222. For the same compound, the Activity entry under setting [2] is listed as “no”.

As to `Br.COc1ccc(-c2ccc(=N)n(CCCC(=O)O)n2)cc1` [SR-95531], the Activity result is listed as “no”, the “Z Score” value is −0.9574 and the Z score is given as −0.957.

Take `CN(C)c1ccc(/C=C2\C(=O)Nc3ccccc32)cc1` [SU 4312]: the “Z Score” value is given as 0.2692. The compound further gave a Z score under setting [1] of 0.269. For the same compound, under setting [2], the Activity entry is recorded as “no”.

With `Cc1cc(C)c(/C=C2\C(=O)Nc3ccccc32)[nH]1` [SU 5416], the “Z Score” value is listed as −0.6622. For the same compound, under setting [1], the Z score was −0.662. Also, the Activity entry under setting [2] was “no”.

In the case of `CN(C)S(=O)(=O)c1ccc2c(c1)/C(=C/c1cc3c([nH]1)CCCC3)C(=O)N2` [SU 6656], the “Z Score” value is recorded as 0.3165. Also, the Z score under setting [1] was 0.316. Also, under setting [2], the Activity result is reported as “no”.

In the case of `CC(C)(C)NCC(O)c1ccc(O)c(CO)c1` (stereo not drawn) [Salbutamol], the “Z Score” value under setting [3] is reported as −1.678. For the same compound, under setting [1], the Z score was −1.678. Besides, the Activity result under setting [2] is given as “no”.

On to `OCc1cc(C(O)CNCCCCCCOCCCCc2ccccc2)ccc1O` (stereo not drawn) [Salmeterol], for which the Activity result is reported as “no”. The “Z Score” value under setting [4] was −0.4896. The Z score under setting [1] is listed as −0.490.

`CCCCCCCCCC[Si](C)(C)CCC(=O)NC(Cc1ccc(C)cc1)c1ccccc1` (stereo not drawn) [Sandoz 58-035]: the “Z Score” value (LOPAC library screen, 3 μM, MTT, neurosphere cultures) was 0.3325. The compound also displayed a Z score (primary LOPAC screen, 3 μM, MTT, neurosphere proliferation) of 0.332. Besides, the Activity result under setting [5] is “no”.

For `C[n+]1cc2c3c(ccc2c2ccc4cc5c(cc4c21)OCO5)OCO3` [Sanguinarine chloride], the “Z Score” value is −10.01. For the same compound, the Z score under setting [1] is −10.008. Also, the Activity entry (yes/no: significantly inhibited neurosphere proliferation (P<0.01) in the primary screen) is on record as “yes”.

On to `C[Se]C[C@H](N)C(=O)O.Cl` [Se-(methyl)selenocysteine hydrochloride], for which the “Z Score” value was 0.4116. The compound also had a Z score under setting [1] of 0.412. The Activity result under setting [6] is on record as “no”.

Take `CC(C)[C@@H]1NC(=O)[C@H](CCCCN)NC(=O)[C@@H](Cc2c[nH]c3ccccc23)NC(=O)[C@H](Cc2ccc(O)cc2)NC(=O)[C@H](C)N(C)C(=O)[C@H](Cc2ccccc2)NC1=O` [Seglitide]: under setting [4], the “Z Score” value is −0.662. Also, the Z score under setting [1] was −0.662. Besides, the Activity entry under setting [2] was “no”.

As for `NNC(N)=O` [Semicarbazide hydrochloride], the “Z Score” value is recorded as −1.405. Under setting [1], the Z score is reported as −1.405. Also, the Activity result under setting [2] was “no”.

Regarding `C[C@H](O)C(=O)C1=Nc2c(nc(N)[nH]c2=O)NC1` [Sepiapterin], for the setting “168 h, 3 µM”, the “Z Score” value was 1.795 and the Z score stood at 1.795. Moreover, the Activity entry under setting [5] is given as “no”.

In the case of `NCCc1c[nH]c2ccc(O)cc12` [Serotonin hydrochloride], where the note is “168 h, 3 µM”, the “Z Score” value is −2.197 and the Z score is −2.197. Also, the Activity entry (yes/no: significantly inhibited neurosphere proliferation (P<0.01) in primary screen) is listed as “no”.

In the case of `CC(C)COC(=O)OCN1C(=O)CN(CCN2CC(=O)N(COC(=O)OCC(C)C)C(=O)C2)CC1=O` [Sobuzoxane], the “Z Score” value under setting [3] is listed as −9.6. Under setting [1], the Z score is −9.600. The Activity result under setting [6] is given as “yes”.

On to `NC(=O)C(=O)[O-].[Na+]` [Sodium Oxamate], for which, where the note is “168 h, 3 µM”, the “Z Score” value is recorded as 0.7449 and the Z score is 0.745. For the same compound, the Activity entry under setting [2] was “no”.

`C[C@H](CCC(=O)NCCS(=O)(=O)O)[C@H]1CC[C@H]2[C@@H]3[C@H](O)C[C@@H]4C[C@H](O)CC[C@]4(C)[C@H]3C[C@H](O)[C@]12C` [Sodium Taurocholate]: the Activity entry was “no”, the “Z Score” value is listed as −0.7604 and the Z score was −0.760.
